inhibition, IC50 and CC50 data for 33 compounds are collected here from ChEMBL document CHEMBL3407424, “Synthesis and evaluation of new α-methylene-γ-lactone carbamates with NO production inhibitory effects in lipopolysaccharide-induced RAW 264.7 macrophages” (Eur J Med Chem, 2015).

The test system of data set [1] is RAW264.7. The data set can be described thus: Antiinflammatory activity against mouse RAW264.7 cells assessed as inhibition of LPS-induced NO production at 25 uM incubated for 30 mins by microplate reader analysis. In kind it is functional. The note with it: RAW264.7, 0.5 h.
Data set [2] has as its system RAW264.7. The data set can be described thus: Antiinflammatory activity against mouse RAW264.7 cells assessed as inhibition of LPS-induced NO production incubated for 30 mins by microplate reader analysis. The note with it: RAW264.7, 0.5 h. In kind it is functional, cell-based.
Data set [3] in a line: Cytotoxicity against mouse RAW264.7 cells after 18 hrs by MTT assay. In kind it is cell-based.

In the case of `C=C1C(=O)OC[C@H]1CCOC(=O)Nc1ccc(Cl)cc1`, the inhibition (commonly the drop in the measured response relative to a control, in per cent) at 25 µM in the data set with RAW264.7 [1] is greater than 94%. In addition, the IC50 – broadly, the concentration that inhibits the measured activity by half – with RAW264.7 [2] turned out to be 0.39 µM. Further, in data set [3], the CC50 (usually the concentration at which the toxic effect on the cells reaches its halfway point) at 18 h was found to be 9.14 µM.

As to `C=C1C(=O)OC[C@H]1CCOC(=O)Nc1ccc(C(=O)OCCCC)cc1`, the inhibition at 25 µM with RAW264.7 [1] was greater than 94%. Further, in the data set on RAW264.7 [2], the IC50 was found to be 0.43 µM. In addition, the midpoint of cytotoxicity in data set [3], the CC50 at 18 h, lay at 8.94 µM.

Turning to `C=C1C(=O)OC[C@@H]1CCOC(=O)Nc1cccc(Br)c1`, the inhibition at 25 µM in the data set with RAW264.7 [1] is greater than 94%. Besides, the IC50 with RAW264.7 [2] was found to be 0.84 µM. The CC50 at 18 h in data set [3] worked out at 17.7 µM.

`C=C1C(=O)OC[C@@H]1CCOC(=O)Nc1ccc(C)c(C)c1`: the inhibition at 25 µM in the data set on RAW264.7 [1] is greater than 94%. In addition, in the data set with RAW264.7 [2], the 50% inhibitory concentration (IC50) came to 1.45 µM. In data set [3], this compound showed a cytotoxic concentration (CC50) at 18 h of 13.7 µM.

On to `C=C1C(=O)OC[C@@H]1CCOC(=O)Nc1ccc(C(C)C)cc1`, for which the inhibition at 25 µM with RAW264.7 [1] is greater than 94%. Also, in the data set with RAW264.7 [2], the concentration for half-maximal inhibition (IC50) amounted to 1.58 µM. The CC50 at 18 h in data set [3] turned out to be 15.3 µM.

For `C=C1C(=O)OC[C@@H]1CCOC(=O)Nc1cc(C(F)(F)F)cc(C(F)(F)F)c1`, the inhibition at 25 µM with RAW264.7 [1] is greater than 94%. The IC50 in the data set on RAW264.7 [2] was determined as 0.8 µM. This compound came in with a half-maximal cytotoxic concentration (CC50) at 18 h in data set [3] of 12.4 µM.

With `C=C1C(=O)OC[C@H]1CCOC(=O)Nc1ccc(C)c(C)c1`, the inhibition at 25 µM in the data set with RAW264.7 [1] was greater than 94%. Also, the half-inhibitory concentration (IC50) with RAW264.7 [2] came out at 1.09 µM. In data set [3], this compound registered a cytotoxic concentration (CC50) at 18 h of 18.2 µM.

Consider `C=C1C(=O)OC[C@@H]1CCOC(=O)Nc1ccc(CCCC)cc1`, for which the inhibition at 25 µM with RAW264.7 [1] is greater than 94%. Also, the IC50 with RAW264.7 [2] amounted to 1.23 µM. The compound also registered a half-maximal cytotoxic concentration (CC50) at 18 h in data set [3] of 9.95 µM.

As to `C=C1C(=O)OC[C@@H]1CCOC(=O)Nc1ccccc1F`, the inhibition at 25 µM in the data set with RAW264.7 [1] is greater than 94%. For the same compound, the half-inhibitory concentration (IC50) with RAW264.7 [2] worked out at 0.69 µM. The CC50 at 18 h in data set [3] amounted to 24.2 µM.

As for `C=C1C(=O)OC[C@@H]1CCOC(=O)Nc1ccc(F)cc1F`, in the data set with RAW264.7 [1], the inhibition at 25 µM was greater than 94%. In addition, the 50% inhibitory concentration (IC50) in the data set with RAW264.7 [2] amounted to 0.7 µM. The compound further came in with a half-maximal cytotoxic concentration (CC50) at 18 h in data set [3] of 14.8 µM.

As to `C=C1C(=O)OC[C@H]1CCOC(=O)Nc1ccc(CCCC)cc1`, the inhibition at 25 µM in the data set on RAW264.7 [1] is greater than 94%. Besides, the 50% inhibitory concentration (IC50) in the data set with RAW264.7 [2] turned out to be 0.62 µM. The same compound yielded a CC50 at 18 h in data set [3] of 15.9 µM.

As for `C=C1C(=O)OC[C@H]1CCOC(=O)Nc1c(C)cccc1C(C)C`, the inhibition at 25 µM in the data set with RAW264.7 [1] worked out at 80.7%. Moreover, the IC50 with RAW264.7 [2] is 1.94 µM. The compound further had a cytotoxic concentration (CC50) at 18 h in data set [3] of 22.2 µM.

For the compound `C=C1C(=O)OC[C@H]1CCOC(=O)Nc1cccc(Br)c1`, the inhibition at 25 µM in the data set with RAW264.7 [1] is greater than 94%. For the same compound, the 50% inhibitory concentration (IC50) in the data set on RAW264.7 [2] was found to be 0.59 µM. Besides, the midpoint of cytotoxicity in data set [3], the CC50 at 18 h, lay at 21.8 µM.

Turning to `C=C1C(=O)OC[C@@H]1CCOC(=O)Nc1ccc(Cl)cc1`, in the data set on RAW264.7 [1], the inhibition at 25 µM is greater than 94%. Moreover, in the data set with RAW264.7 [2], the half-maximal inhibitory concentration (IC50) is 1.07 µM. Also, half-maximal cytotoxicity in data set [3] (CC50 at 18 h) was put at 10.3 µM.

Consider `C=C1C(=O)OC[C@H]1CCOC(=O)Nc1ccccc1`, for which the inhibition at 25 µM in the data set with RAW264.7 [1] is greater than 94%. Moreover, the IC50 in the data set on RAW264.7 [2] is 0.39 µM. In data set [3], this compound came in with a 50% cytotoxic concentration (CC50) at 18 h of 14.8 µM.

For the compound `C=C1C(=O)OC[C@@H]1CCOC(=O)Nc1cc(C)cc(C)c1`, in the data set on RAW264.7 [1], the inhibition at 25 µM is greater than 94%. In the data set with RAW264.7 [2], the IC50 worked out at 1.24 µM. In addition, it took 13.6 µM to reach half-maximal cytotoxicity in data set [3] (CC50 at 18 h).

As for `C=C1C(=O)OC[C@@H]1CCOC(=O)Nc1ccc(Br)cc1`, in the data set on RAW264.7 [1], the inhibition at 25 µM is greater than 94%. For the same compound, in the data set on RAW264.7 [2], the concentration for half-maximal inhibition (IC50) stood at 0.72 µM. The same compound returned a CC50 at 18 h in data set [3] of 19.8 µM.

As to `C=C1C(=O)OC[C@@H]1CCOC(=O)Nc1ccc(OC)cc1`, the inhibition at 25 µM with RAW264.7 [1] is greater than 94%. Moreover, the half-maximal inhibitory concentration (IC50) with RAW264.7 [2] is 1.09 µM. Further, in data set [3], the 50% cytotoxic concentration (CC50) at 18 h came to 11.9 µM.

Take `C=C1C(=O)OC[C@H]1CCOC(=O)Nc1ccc(Br)cc1`: the inhibition at 25 µM with RAW264.7 [1] is greater than 94%. For the same compound, in the data set on RAW264.7 [2], the IC50 was determined as 0.35 µM. This compound also showed a half-maximal cytotoxic concentration (CC50) at 18 h in data set [3] of 8.47 µM.

In the case of `C=C1C(=O)OC[C@@H]1CCOC(=O)Nc1ccc(I)cc1`, the inhibition at 25 µM with RAW264.7 [1] is greater than 94%. For the same compound, the 50% inhibitory concentration (IC50) in the data set on RAW264.7 [2] was found to be 0.79 µM. The same compound registered a CC50 at 18 h in data set [3] of 12.5 µM.

Regarding `C=C1C(=O)OC[C@@H]1CCOC(=O)Nc1ccc(CC)cc1`, the inhibition at 25 µM in the data set with RAW264.7 [1] is greater than 94%. Besides, in the data set on RAW264.7 [2], the IC50 was 1.26 µM. In data set [3], this compound registered a half-maximal cytotoxic concentration (CC50) at 18 h of 7.58 µM.

With `C=C1C(=O)OC[C@H]1CCOC(=O)Nc1ccc(C(C)C)cc1`, in the data set with RAW264.7 [1], the inhibition at 25 µM is greater than 94%. Besides, the IC50 with RAW264.7 [2] is 0.34 µM. The compound further returned a CC50 at 18 h in data set [3] of 12.4 µM.

Regarding `C=C1C(=O)OC[C@@H]1CCOC(=O)Nc1ccc(C(=O)OCCCC)cc1`, in the data set with RAW264.7 [1], the inhibition at 25 µM was greater than 94%. Besides, in the data set with RAW264.7 [2], the IC50 was determined as 0.86 µM. The compound further had a CC50 at 18 h in data set [3] of 12.7 µM.

`C=C1C(=O)OC[C@H]1CCOC(=O)Nc1ccccc1F`: the inhibition at 25 µM in the data set with RAW264.7 [1] was greater than 94%. The 50% inhibitory concentration (IC50) with RAW264.7 [2] came out at 0.35 µM. The same compound came in with a CC50 at 18 h in data set [3] of 17.4 µM.

Turning to `C=C1C(=O)OC[C@H]1CCOC(=O)Nc1cc(C)cc(C)c1`, the inhibition at 25 µM with RAW264.7 [1] is greater than 94%. In the data set on RAW264.7 [2], the IC50 is 0.48 µM. Moreover, in data set [3], it took 12.7 µM to reach half-maximal cytotoxicity (CC50 at 18 h).

For the compound `C=C1C(=O)OC[C@@H]1CCOC(=O)Nc1c(C)cccc1C(C)C`, the inhibition at 25 µM with RAW264.7 [1] is 39.5%. Further, the IC50 in the data set with RAW264.7 [2] was determined as 5.98 µM. For the same compound, in data set [3], the half-maximal cytotoxic concentration (CC50) at 18 h is greater than 50 µM.

For the compound `C=C1C(=O)OC[C@H]1CCOC(=O)Nc1cc(C(F)(F)F)cc(C(F)(F)F)c1`, in the data set on RAW264.7 [1], the inhibition at 25 µM is greater than 94%. Further, the IC50 with RAW264.7 [2] was found to be 0.96 µM. Besides, the CC50 at 18 h in data set [3] worked out at 13.9 µM.

With `C=C1C(=O)OC[C@H]1CCOC(=O)Nc1ccc(OC)cc1`, the inhibition at 25 µM in the data set on RAW264.7 [1] is greater than 94%. Moreover, the half-inhibitory concentration (IC50) in the data set on RAW264.7 [2] came out at 0.71 µM. In data set [3], this compound registered a 50% cytotoxic concentration (CC50) at 18 h of 12.4 µM.

On to `C=C1C(=O)OC[C@H]1CCOC(=O)Nc1ccc(F)cc1F`, for which, in the data set on RAW264.7 [1], the inhibition at 25 µM was greater than 94%. Besides, the IC50 in the data set with RAW264.7 [2] is 0.33 µM. Moreover, in data set [3], the half-maximal cytotoxic concentration (CC50) at 18 h stood at 24.5 µM.

With `C=C1C(=O)OC[C@H]1CCOC(=O)Nc1ccc(I)cc1`, in the data set with RAW264.7 [1], the inhibition at 25 µM was greater than 94%. For the same compound, the IC50 in the data set on RAW264.7 [2] was 0.49 µM. Further, the midpoint of cytotoxicity in data set [3], the CC50 at 18 h, lay at 12.8 µM.

For `C=C1C(=O)OC[C@@H]1CCOC(=O)Nc1ccccc1`, in the data set with RAW264.7 [1], the inhibition at 25 µM is greater than 94%. In the data set with RAW264.7 [2], the half-inhibitory concentration (IC50) came to 0.78 µM. This compound also registered a cytotoxic concentration (CC50) at 18 h in data set [3] of 22.3 µM.

`C=C1C(=O)OC[C@H]1CCOC(=O)Nc1ccc(CC)cc1`: the inhibition at 25 µM in the data set on RAW264.7 [1] was greater than 94%. For the same compound, the 50% inhibitory concentration (IC50) with RAW264.7 [2] was 0.84 µM. For the same compound, the CC50 at 18 h in data set [3] amounted to 11.3 µM.

On to `N=C(N)NN` [PIMAGEDINE], for which, in the data set with RAW264.7 [2], the 50% inhibitory concentration (IC50) was determined as 7.29 µM.
